Measurements from US20260200903A1, “PHARMACEUTICAL COMPOSITION FOR AMELIORATING MALIGNANT DISEASES” (KINKI UNIVERSITY, priority 2020, published 2026).

Assays:
[1] = test system: ATN-1 cells (adult T cell leukemia cell line); test: Cell death inducing effect on ATN-1 cells, trypan blue staining; assay type: cell-based; conditions: ATN-1 (ATL), cell viability
Procedure: (§1) ATN-1 cells (adult T cell leukemia cell line) were cultured under 5% CO2 at 37° C. The culture medium used RPMI-1640 medium with 100 μg/mL penicillin, 100 U/mL streptomycin and fetal bovine serum. ATN-1 cells were seeded into 96-well plates and incubated with each concentration of the compounds was added, and cell viability was determined by the trypan blue staining.
(§2) For controls, only 0.5% DMSO (diluted in PBS) used to dissolve the compounds was added. For each concentration, the codes “5, 6, 7, 8, 9, 10, 11, 12” and arrows are shown from left to right. The sign “5” is the M9 (formula (5)) administration group, the sign “6” is the M11 (formula (6)) administration group, the sign “7” is the M12 (formula (7)) administration group, the sign “8” is the M14 (formula (8)) administration group, the sign “9” is the M15 (formula (9)) administration group, the sign “10” is the M16 (formula (10)) administration group, the sign “11” is the M18 (formula (11)) administration group, the sign “12” is the M19 (formula (12)) administration group, respectively. The IC50 values for each compound is also listed in the upper right corner of the figure.

[2] = test system: MEC-1 cells (chronic lymphocytic leukemia cell line); test: Cell death inducing effect on MEC-1 cells, trypan blue staining; assay type: cell-based; conditions: MEC-1 (CLL), cell viability
Procedure: as §1, with “MEC-1” for “ATN-1”, “(chronic lymphocytic” for “(adult T cell”
as §2

[3] = test system: HUT-78 cells (peripheral T lymphoma cell line); test: Cell death inducing effect on HUT-78 cells, trypan blue staining; assay type: cell-based; conditions: HUT-78 (peripheral T-cell lymphoma), cell viability
Procedure: HUT-78 cells (peripheral T lymphoma cell line) were cultured under 5% CO2 at 37° C.
The culture medium used RPMI-1640 medium with 100 μg/mL penicillin, 100 U/mL streptomycin and fetal bovine serum. HUT-78 cells were seeded into 96-well plates and incubated with each concentration of the compounds was added, and cell viability was determined by the trypan blue staining.
as §2

IgG = IgG secretion in KMS-28BM cells, ELISA; assay type: cell-based, human; conditions: KMS-28BM culture supernatant after 10 days; compounds at 0.005-50 μM; control 1326 ng/mL
Procedure: The inhibitory effect of each compound on IgG secretion was examined by enzyme-linked immunosorbent assay (ELISA) using KMS-28BM cells.
(§3) As a control, compounds untreated KMS-28BM cells were seeded in 75 cm^2 flasks and incubated for 10 days at 37° C. and 5% CO2. KMS-28BM cells were seeded into 75 cm^2 flasks and pre-cultured for 4 h. After incubation, KMS-28BM cells were treated with […], 0.05 μM M9, 0.1 μM yk-7, 0.1 μM yk-8-3, 50 μM yk-8-1, 0.5 μM M11, […], 0.005 μM M14, 0.005 μM M15, 0.005 μM M16, 0.5 μM M18, and 0.5 μM M19 at final concentrations, and incubated for 10 days at 37° C. and 5% CO2. After 10 days of incubation, the culture supernatant was collected and IgG secretion was measured by ELISA. This measurement was performed using a human anti-IgG antibody ELISA kit (Funakoshi).

[4] = test system: immunoglobulin free λ light chain; test: Immunoglobulin free λ light chain secretion in KMS-28BM cells, ELISA; assay type: cell-based, human; conditions: KMS-28BM culture supernatant after 10 days, control 48 μg/L
Procedure: The inhibitory effect of each compound on immunoglobulin free λ light chain secretion was examined by enzyme-linked immunosorbent assay (ELISA) using KMS-28BM cells.
as §3, with “immunoglobulin free λ light chain” for “IgG”, “anti-λchain” for “anti-IgG”

[5] = test system: immunoglobulin free λ light chain; test: Immunoglobulin free λ light chain secretion in L363 cells, ELISA; assay type: cell-based, human; conditions: L363 culture supernatant after 10 days, control 145 μg/L
Procedure: The inhibitory effect of each compound on immunoglobulin free λ light chain secretion was examined by enzyme-linked immunosorbent assay (ELISA) using L363 cells.
As a control, compounds untreated L363 cells were seeded in 75 cm^2 flasks and incubated for 10 days at 37° C. and 5% CO2. L363 cells were seeded into 75 cm^2 flasks and pre-cultured for 4 h. After incubation, L363 cells were treated with 0.1 μM M7, 0.05 μM M9, 0.1 μM yk-7, 0.1 μM yk-8-3, 50 μM yk-8-1, 0.1 μM M11, 0.01 μM M12, 0.005 μM M14, 0.005 μM M15, 0.005 μM M16, 1 μM M18, and 1 μM M19 at final concentrations, and incubated for 10 days at 37° C. and 5% CO2. After 10 days of incubation, the culture supernatant was collected and immunoglobulin free λ light chain secretion was measured by ELISA. This measurement was performed using a human anti-λ chain antibody ELISA kit (Funakoshi).

Raji cells = test: Tumor growth inhibition in mice transplanted with Raji cells; assay type: in vivo, NOD/ShiJic-scidJcl mice; conditions: oral 50 mg/kg daily, day 21, vs control group (P<0.01)
Procedure: Raji cells were transplanted into NOD/ShiJic-scidJcl mice, and the tumor growth inhibitory effect of oral administration of M9 and M14 was examined. As a result, a remarkable tumor growth inhibitory effect was observed.
Raji cells were transplanted into NOD/ShiJic-scidJcl mice, and the mice were orally administered M9 at 50 mg/kg and M14 at 50 mg/kg daily on day 0 when the average tumor volume exceeded 100 mm^3, and the tumor volume was measured on day 21.
The group that was only transplanted with Raji cells is called the control group, the group that was treated with M9 is called the M9-treated group, and the group that was treated with M14 is called the M14-treated group. Each group consisted of 5 animals.
Referring to the figure, the horizontal axis indicates drug treatment, and the vertical axis indicates tumor volume (percent of the control group).
White bars indicate the control group (labeled “Control”). Black bars indicate the M9 treatment group (labeled “50 mg/kg M9”) and vertical bars indicate the M14 treatment group (labeled “50 mg/kg M14”).

Row | SMILES | IC50 ([1]; Homo sapiens) [nM] | IC50 ([2]; Homo sapiens, MEC1) [nM] | IC50 ([3]; Homo sapiens, HuT78) [nM] | other results
1 | CCCCO[C@@H]1[C@@H](OCCCC)[C@H](c2c(O)cc3oc4cc(O)c(O)cc4c(=O)c3c2O)O[C@H](COC(=O)CCC)[C@H]1OC(=O)CCC [Compound M16, 2′,3′-di-O-butyl-4′,6′-di-O-butyrylmangiferin] | 7 | 7 | 9 | 
2 | CCCCC(=O)OC[C@H]1O[C@@H](c2c(OC(=O)CCCC)cc3oc4cc(OC(=O)CCCC)c(OC(=O)CCCC)cc4c(=O)c3c2OC(=O)CCCC)[C@H](OC(=O)CCCC)[C@@H](OC(=O)CCCC)[C@@H]1OC(=O)CCCC [yk-8-1, 1,3,2′,3′,4′,6,6′,7-octa-O-valerylmangiferin] |  |  |  | IgG secretion (IgG): 1117 ng/mL; λ chain secretion ([4]; compounds at 0.005-50 μM): 35 µg/L; λ chain secretion ([5]; compounds at 0.005-50 μM): 119 µg/L
3 | CC(C)(C)C(=O)OC[C@H]1O[C@@H](c2c(O)cc3oc4cc(O)c(O)cc4c(=O)c3c2O)[C@H](OC(=O)C(C)(C)C)[C@@H](OC(=O)C(C)(C)C)[C@@H]1OC(=O)C(C)(C)C [Compound M15, 2′,3′,4′,6′-tetra-O-pivaloylmangiferin] | 11 | 9 | 22 | 
4 | CCCC(=O)OC[C@H]1O[C@@H](c2c(OC(=O)CCC)cc3oc4cc(OC(=O)CCC)c(OC(=O)CCC)cc4c(=O)c3c2OC(=O)CCC)[C@H](OC(=O)CCC)[C@@H](OC(=O)CCC)[C@@H]1OC(=O)CCC [Compound M11, 1,3,2′,3′,4′,6,6′,7-octa-O-butyrylmangiferin] |  |  |  | IgG secretion (IgG): 61 ng/mL; IC50 [1]: 1850 nM; λ chain secretion ([4]; compounds at 0.005-50 μM): 1.1 µg/L; IC50 [2]: 575 nM; IC50 [3]: 905 nM; λ chain secretion ([5]; compounds at 0.005-50 μM): 11 µg/L
5 | C=CCOc1cc(O)cc2oc3cc(O)c(O)cc3c(=O)c12 [Compound M19, 1-allyloxy-3,6,7-trihydroxy-9H-xanthen-9-one] | 4520 | 6890 | 6740 | 
6 | CCC(=O)OC[C@H]1O[C@@H](c2c(O)cc3oc4cc(O)c(O)cc4c(=O)c3c2O)[C@H](OC(=O)CC)[C@@H](OC(=O)CC)[C@@H]1OC(=O)CC [Compound M9, 2′,3′,4′,6′-tetra-O-propionylmangiferin] | 589 | 454 | 925 | tumor growth (tumor volume, percent of the control group) (Raji cells): significant inhibition of tumor growth
7 | O=c1c2cc(O)c(O)cc2oc2cc(O)cc(OCCO)c12 [Compound M18, 3,6,7-trihydroxy-1-(2-hydroxyethoxy)-9H-xanthen-9-one] | 2890 | 3120 | 4540 | 
8 | CCCC(=O)OC[C@H]1O[C@@H](c2c(O)cc3oc4cc(O)c(O)cc4c(=O)c3c2OC(=O)CCC)[C@H](OC(=O)CCC)[C@@H](OC(=O)CCC)[C@@H]1OC(=O)CCC [Compound M12, 1,2′,3′,4′,6-penta-O-butyrylmangiferin] | 15 | 12 | 21 | 
9 | CCC(=O)OC[C@H]1O[C@@H](c2c(OC(=O)CC)cc3oc4cc(OC(=O)CC)c(OC(=O)CC)cc4c(=O)c3c2OC(=O)CC)[C@H](OC(=O)CC)[C@@H](OC(=O)CC)[C@@H]1OC(=O)CC [Compound M7, 1,3,2′,3′,4′,6,6′,7-octa-O-propionylmangiferin] |  |  |  | λ chain secretion ([4]; M7 group, unit printed g/L): 2.1e+06 µg/L; λ chain secretion ([5]; M7 group, unit printed g/L): 2.3e+07 µg/L
10 | CCCC(=O)OC[C@H]1O[C@@H](c2c(O)cc3oc4cc(O)c(O)cc4c(=O)c3c2O)[C@H](OC(=O)CCC)[C@@H](OC(=O)CCC)[C@@H]1OC(=O)CCC [Compound M14, 2′,3′,4′,6′-tetra-O-butyrylmangiferin] | 8 | 8 | 8 | tumor growth (tumor volume, percent of the control group) (Raji cells): significant inhibition of tumor growth
